What follows are molecules tested against T1, Human CaV2.2 channels (Homo sapiens, UniProt Q00975) (assay: Fluorescence assay for CaV2.2 channels using potassium depolarization to induce channel opening (FLIPR, Fluo 4)). Settings: 3 μM test compound, 30 mM KCl assay buffer (inactivated channel state), HEK293 cells.
T1 construct: expressed in transfected cells; Kir2.3 also stably co-expressed
T1 sequence (Q00975 whole entry): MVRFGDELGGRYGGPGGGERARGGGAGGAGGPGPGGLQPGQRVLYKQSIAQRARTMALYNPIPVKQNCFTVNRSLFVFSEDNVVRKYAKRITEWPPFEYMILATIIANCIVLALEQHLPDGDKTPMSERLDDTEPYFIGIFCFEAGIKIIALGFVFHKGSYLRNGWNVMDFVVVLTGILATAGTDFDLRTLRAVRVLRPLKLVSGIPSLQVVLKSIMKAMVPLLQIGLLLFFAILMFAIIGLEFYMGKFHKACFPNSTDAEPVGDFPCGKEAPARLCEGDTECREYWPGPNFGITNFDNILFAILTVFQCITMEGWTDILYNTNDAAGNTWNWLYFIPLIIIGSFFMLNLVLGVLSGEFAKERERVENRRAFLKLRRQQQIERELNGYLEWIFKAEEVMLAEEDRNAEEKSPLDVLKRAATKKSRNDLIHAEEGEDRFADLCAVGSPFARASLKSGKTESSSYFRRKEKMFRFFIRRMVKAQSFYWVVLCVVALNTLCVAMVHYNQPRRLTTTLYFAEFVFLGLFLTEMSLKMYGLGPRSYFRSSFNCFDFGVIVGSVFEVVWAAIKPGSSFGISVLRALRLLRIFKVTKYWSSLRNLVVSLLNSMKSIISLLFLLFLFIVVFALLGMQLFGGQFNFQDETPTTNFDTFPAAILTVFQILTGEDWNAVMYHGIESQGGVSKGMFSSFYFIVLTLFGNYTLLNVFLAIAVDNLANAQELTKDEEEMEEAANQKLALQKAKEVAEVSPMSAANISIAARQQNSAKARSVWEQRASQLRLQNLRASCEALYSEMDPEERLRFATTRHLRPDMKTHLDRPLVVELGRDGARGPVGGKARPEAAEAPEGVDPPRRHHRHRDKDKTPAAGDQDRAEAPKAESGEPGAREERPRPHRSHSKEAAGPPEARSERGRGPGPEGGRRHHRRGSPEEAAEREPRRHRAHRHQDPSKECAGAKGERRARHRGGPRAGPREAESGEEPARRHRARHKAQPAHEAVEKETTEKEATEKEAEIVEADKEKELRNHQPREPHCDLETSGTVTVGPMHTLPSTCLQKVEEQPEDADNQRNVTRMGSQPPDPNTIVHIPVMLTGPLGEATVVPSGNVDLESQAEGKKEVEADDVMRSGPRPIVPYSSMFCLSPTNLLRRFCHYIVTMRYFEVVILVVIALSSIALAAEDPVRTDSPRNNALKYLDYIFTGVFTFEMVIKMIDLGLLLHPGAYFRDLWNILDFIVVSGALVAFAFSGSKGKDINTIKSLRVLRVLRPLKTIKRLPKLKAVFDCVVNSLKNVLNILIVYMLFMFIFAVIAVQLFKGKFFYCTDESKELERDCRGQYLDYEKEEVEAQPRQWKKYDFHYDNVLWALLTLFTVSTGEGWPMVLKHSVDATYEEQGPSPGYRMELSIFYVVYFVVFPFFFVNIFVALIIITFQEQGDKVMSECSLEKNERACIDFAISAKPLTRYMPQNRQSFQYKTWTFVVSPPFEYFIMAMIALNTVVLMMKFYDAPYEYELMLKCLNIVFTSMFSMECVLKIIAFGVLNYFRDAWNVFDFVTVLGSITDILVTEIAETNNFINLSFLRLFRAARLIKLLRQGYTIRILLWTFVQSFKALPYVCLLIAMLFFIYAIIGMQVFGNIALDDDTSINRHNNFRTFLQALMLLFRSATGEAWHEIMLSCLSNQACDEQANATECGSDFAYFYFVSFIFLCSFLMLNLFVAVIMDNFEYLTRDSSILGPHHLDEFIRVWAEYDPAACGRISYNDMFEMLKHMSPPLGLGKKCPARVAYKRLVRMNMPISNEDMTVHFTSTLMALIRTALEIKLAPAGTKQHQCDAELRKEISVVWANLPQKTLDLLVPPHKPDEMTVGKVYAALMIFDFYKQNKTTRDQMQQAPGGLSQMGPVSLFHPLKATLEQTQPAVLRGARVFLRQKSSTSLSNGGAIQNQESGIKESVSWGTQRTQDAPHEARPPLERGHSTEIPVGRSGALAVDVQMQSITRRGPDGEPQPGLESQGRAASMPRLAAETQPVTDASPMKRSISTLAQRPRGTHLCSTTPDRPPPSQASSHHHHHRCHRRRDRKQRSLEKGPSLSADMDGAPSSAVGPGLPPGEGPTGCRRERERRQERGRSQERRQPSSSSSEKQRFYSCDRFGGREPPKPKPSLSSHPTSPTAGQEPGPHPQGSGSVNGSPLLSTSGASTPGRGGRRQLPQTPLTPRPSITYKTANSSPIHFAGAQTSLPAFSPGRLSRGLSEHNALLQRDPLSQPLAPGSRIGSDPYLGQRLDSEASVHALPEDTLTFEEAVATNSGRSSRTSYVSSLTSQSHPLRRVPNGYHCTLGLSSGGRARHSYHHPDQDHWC
Assay type: cell-based
Procedure, shortened: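 HEK293 cells stably co-expressing human CaV2.2 with α2δ and β subunits plus Kir2.3, Fluo-4 loaded; compounds preincubated 15 min at 25 °C in 1 mM or 30 mM KCl buffer (inactivated state), pH 7.4. Depolarized by KCl addition; baseline-normalized peak fluorescence (ex 480/em 535 nm) gave inhibition.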
For `C[S+]([O-])c1cc(Cl)ccc1C1CC(C)(S(=O)(=O)c2cccc(C(F)(F)F)c2)CCO1` (stereo not shown) [SC-289, 2-[4-Chloro-2-(methylsulfinyl)-phenyl]-4-methyl-4-[[3-(trifluoromethyl)phenyl]sulfonyl]-tetrahydro-pyran], the “Activity Category: %-Inhib (CaV2.2) @3 μM @30 mM KCl” value (from here on “Activity Category: %-Inhib”) was “C (%-Inhibition >40% up to ≦75%)”.
`C[S+]([O-])c1cc(Cl)ccc1C1CC(C)(S(=O)(=O)c2cccc(C(F)(F)F)c2)CCO1` (stereo not shown) [SC-290, 2-[4-Chloro-2-(methylsulfinyl)-phenyl]-4-methyl-4-[[3-(trifluoromethyl)phenyl]sulfonyl]-tetrahydro-pyran] was tested, and the “Activity Category: %-Inhib” value was “B (%-Inhibition >75% up to ≦95%)”.
For `C[S+]([O-])c1cc(Cl)ccc1C1CC(C)(S(=O)(=O)c2cccc(C(F)(F)F)c2)CCO1` (stereo not shown) [SC-291, 2-[4-Chloro-2-(methylsulfinyl)-phenyl]-4-methyl-4-[[3-(trifluoromethyl)phenyl]sulfonyl]-tetrahydro-pyran], the “Activity Category: %-Inhib” value was “A (%-Inhibition >95%)”.
`CC1(S(=O)(=O)c2cccc(C(F)(F)F)c2)CCOC(c2cc(F)cc(S(C)(=O)=O)c2)C1` (stereo not shown) [SC-297, 2-(3-Fluoro-5-methylsulfonyl-phenyl)-4-methyl-4-[[3-(trifluoromethyl)phenyl]sulfonyl]-tetrahydro-pyran] was tested, and the “Activity Category: %-Inhib” value was “A (%-Inhibition >95%)”.
In the case of `CC1(C)CC(C)(S(=O)(=O)c2cccc(C(F)(F)F)c2)CC(c2ccc(Cl)cc2)O1` (stereo not shown) [SC-301, 6-(4-Chlorophenyl)-2,2,4-trimethyl-4-[[3-(trifluoromethyl)phenyl]sulfonyl]-tetrahydro-pyran], the “Activity Category: %-Inhib” value is reported as “B (%-Inhibition >75% up to ≦95%)”.
For `CC1(S(=O)(=O)c2cc(F)cc(C(F)(F)F)c2)CCOC(c2ccc(Cl)cc2)C1` (stereo not shown) [SC-304, 2-(4-Chlorophenyl)-4-[[3-fluoro-5-(trifluoromethyl)-phenyl]sulfonyl]-4-methyl-tetrahydro-pyran], the “Activity Category: %-Inhib” value was “A (%-Inhibition >95%)”.
In the case of `CC1(S(=O)(=O)c2cccc(C(F)(F)F)c2)CCOC(c2ccc(Cl)cc2)C1` (stereo not shown) [SC-311, 2-(4-Chlorophenyl)-4-methyl-4-[[3-(trifluoromethyl)phenyl]sulfonyl]-tetrahydro-pyran], the “Activity Category: %-Inhib” value is reported as “A (%-Inhibition >95%)”.
In the case of `CC1(S(=O)(=O)c2cccc(C(F)(F)F)c2)CCOC(c2ccc(Cl)cc2)C1` (stereo not shown) [SC-312, 2-(4-Chlorophenyl)-4-methyl-4-[[3-(trifluoromethyl)phenyl]sulfonyl]-tetrahydro-pyran], the “Activity Category: %-Inhib” value is reported as “B (%-Inhibition >75% up to ≦95%)”.
For `O=S(=O)(c1cccc(C(F)(F)F)c1)C1CCOC(c2ccc(Cl)cc2)C1` (stereo not shown) [SC-402, 2-(4-Chlorophenyl)-4-[[3-(trifluoromethyl)phenyl]sulfonyl]-tetrahydro-pyran], the “Activity Category: %-Inhib” value was “A (%-Inhibition >95%)”.
In the case of `CC1(S(=O)(=O)c2cccc(C(F)F)c2)CCOC(c2ccc(S(C)(=O)=O)cc2F)C1` (stereo not shown) [SC-510, 4-[[3-(Difluoro-methyl)-phenyl]sulfonyl]-2-(2-fluoro-4-methylsulfonyl-phenyl)-4-methyl-tetrahydro-pyran], the “Activity Category: %-Inhib” value is reported as “A (%-Inhibition >95%)”.
`CC1(S(=O)(=O)c2cccc(C3CC3)c2)CCOC(c2ccc(S(C)(=O)=O)cc2F)C1` (stereo not shown) [SC-513, 4-[(3-Cyclopropyl-phenyl)sulfonyl]-2-(2-fluoro-4-methylsulfonyl-phenyl)-4-methyl-tetrahydro-pyran] was tested, and the “Activity Category: %-Inhib” value was “A (%-Inhibition >95%)”.

Same assay, conditions: HEK293, 3 μM test compound, 30 mM KCl assay buffer (inactivated channel state), HEK293 cells; read-out: Activity Category: %-Inhib (CaV2.2) @3 μM @30 mM KCl
`CC1(S(=O)(=O)c2cccc(C(F)(F)F)n2)CCOC(c2ccc(S(C)(=O)=O)cc2)C1` (stereo not shown) [SC-293, 2-[[4-Methyl-2-(4-methylsulfonyl-phenyl)-tetrahydro-pyran-4-yl]sulfonyl]-6-(trifluoromethyl)-pyridine] was tested, and the inhibition at 3 µM was 40 to 75%.
For `CC1(S(=O)(=O)c2cccc(C(F)(F)F)c2)CCOC(c2cc(S(C)(=O)=O)ccc2F)C1` (stereo not shown) [SC-294, 2-(2-Fluoro-5-methylsulfonyl-phenyl)-4-methyl-4-[[3-(trifluoromethyl)phenyl]sulfonyl]-tetrahydro-pyran], the inhibition at 3 µM was 75 to 95%.
Molecule `CC1(S(=O)(=O)c2cccc(C(F)(F)F)c2)CCOC(c2cc(F)cc(S(C)(=O)=O)c2)C1` (stereo not shown) [SC-296, 2-(3-Fluoro-5-methylsulfonyl-phenyl)-4-methyl-4-[[3-(trifluoromethyl)phenyl]sulfonyl]-tetrahydro-pyran] has an inhibition at 3 µM of 75 to 95%.
With `CC1(C)CC(C)(S(=O)(=O)c2cccc(C(F)(F)F)c2)CC(c2ccc(Cl)cc2)O1` (stereo not shown) [SC-300, 6-(4-Chlorophenyl)-2,2,4-trimethyl-4-[[3-(trifluoromethyl)phenyl]sulfonyl]-tetrahydro-pyran] the inhibition at 3 µM was greater than 95%.
Work on `CC1(S(=O)(=O)c2cc(F)cc(C(F)(F)F)c2)CCOC(c2ccc(Cl)cc2)C1` (stereo not shown) [SC-303, 2-(4-Chlorophenyl)-4-[[3-fluoro-5-(trifluoromethyl)-phenyl]sulfonyl]-4-methyl-tetrahydro-pyran] yielded an inhibition at 3 µM of 75 to 95%.
In the case of `CCC1(S(=O)(=O)c2cccc(C(F)(F)F)c2)CCOC(C2CC2)C1` (stereo not shown) [SC-306, 2-Cyclopropyl-4-ethyl-4-[[3-(trifluoromethyl)phenyl]sulfonyl]-tetrahydro-pyran], the inhibition at 3 µM is reported as 40 to 75%.
In the case of `CC1(S(=O)(=O)c2cccc(C(F)(F)F)c2)CCOC(c2ccc(Cl)cc2)C1` (stereo not shown) [SC-310, 2-(4-Chlorophenyl)-4-methyl-4-[[3-(trifluoromethyl)phenyl]sulfonyl]-tetrahydro-pyran], the inhibition at 3 µM is reported as greater than 95%.
For `CC1(S(=O)(=O)c2cccc(OC(F)(F)F)c2)CCOC(c2ccc(Cl)cc2)C1` (stereo not shown) [SC-313, 2-(4-Chlorophenyl)-4-methyl-4-[[3-(trifluoromethyloxy)-phenyl]sulfonyl]-tetrahydro-pyran], the inhibition at 3 µM was greater than 95%.
For `O=S(=O)(c1cccc(C(F)(F)F)c1)C1CCOC(c2ccc(Cl)cc2)C1` (stereo not shown) [SC-401, 2-(4-Chlorophenyl)-4-[[3-(trifluoromethyl)phenyl]sulfonyl]-tetrahydro-pyran], the inhibition at 3 µM was 75 to 95%.
`CC(C)Oc1cccc(S(=O)(=O)C2(C)CCOC(c3ccc(S(C)(=O)=O)cc3F)C2)c1` (stereo not shown) [SC-500, 2-(2-Fluoro-4-methylsulfonyl-phenyl)-4-[(3-isopropoxy-phenyl)sulfonyl]-4-methyl-tetrahydro-pyran] showed an inhibition at 3 µM of 75 to 95%.
In the case of `CC1(S(=O)(=O)c2cccc(OC(F)(F)F)c2)CCOC(c2ccc(S(C)(=O)=O)cc2F)C1` (stereo not shown) [SC-502, 2-(2-Fluoro-4-methylsulfonyl-phenyl)-4-methyl-4-[[3-(trifluoromethyloxy)-phenyl]sulfonyl]-tetrahydro-pyran], the inhibition at 3 µM is reported as greater than 95%.
`CC(C)c1cccc(S(=O)(=O)C2(C)CCOC(c3ccc(S(C)(=O)=O)cc3F)C2)c1` (stereo not shown) [SC-506, 2-(2-Fluoro-4-methylsulfonyl-phenyl)-4-[(3-isopropyl-phenyl)sulfonyl]-4-methyl-tetrahydro-pyran] gave an inhibition at 3 µM greater than 95%.
With `CC1(S(=O)(=O)c2cccc(C(F)F)c2)CCOC(c2ccc(S(C)(=O)=O)cc2F)C1` (stereo not shown) [SC-509, 4-[[3-(Difluoro-methyl)-phenyl]sulfonyl]-2-(2-fluoro-4-methylsulfonyl-phenyl)-4-methyl-tetrahydro-pyran] the inhibition at 3 µM was 75 to 95%.
`CC1(S(=O)(=O)c2cccc(C3CC3)c2)CCOC(c2ccc(S(C)(=O)=O)cc2F)C1` (stereo not shown) [SC-512, 4-[(3-Cyclopropyl-phenyl)sulfonyl]-2-(2-fluoro-4-methylsulfonyl-phenyl)-4-methyl-tetrahydro-pyran] was tested, and the inhibition at 3 µM was 75 to 95%.
